This assay deals with IRAK4 (Homo sapiens (Human), UniProt Q9NWZ3). Briefly: IRAK-4 AlphaScreen biochemical kinase assay. The settings on record: 1 nM IRAK4, 1 mM ATP, 3.5 h at RT. In a few lines:
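AlphaScreen read-out: streptavidin beads bind the biotinylated peptide and protein A beads bind the anti-phosphothreonine antibody, so energy transfer reports phosphorylation of the peptide. The kinase is human IRAK-4.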
In general terms: In Alpha technology, singlet oxygen from a donor bead excites a nearby acceptor bead.

The structures appear in SMILES notation.

Chain of IRAK4 (Q9NWZ3 whole entry, species assumed): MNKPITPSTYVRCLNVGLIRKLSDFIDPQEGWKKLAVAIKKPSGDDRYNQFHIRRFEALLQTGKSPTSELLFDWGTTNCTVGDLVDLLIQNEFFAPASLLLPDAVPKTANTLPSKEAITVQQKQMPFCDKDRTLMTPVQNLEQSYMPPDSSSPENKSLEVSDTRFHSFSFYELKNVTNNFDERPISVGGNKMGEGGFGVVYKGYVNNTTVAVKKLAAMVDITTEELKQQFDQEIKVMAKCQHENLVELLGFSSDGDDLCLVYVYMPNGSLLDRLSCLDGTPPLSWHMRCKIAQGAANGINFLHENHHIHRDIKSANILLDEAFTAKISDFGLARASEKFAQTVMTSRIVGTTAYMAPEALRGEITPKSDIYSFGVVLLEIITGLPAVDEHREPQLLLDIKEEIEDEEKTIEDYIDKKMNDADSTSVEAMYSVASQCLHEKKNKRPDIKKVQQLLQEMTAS

As for `Cc1cccc(-n2ncc3ccc(-c4cccc(C(N)C(F)(F)F)n4)cc32)n1` (centres unmarked) [Example 259, 2,2,2-trifluoro-1-(6-(1-(6-methylpyridin-2-yl)-1H-indazol-6-yl)pyridin-2-yl)ethanamine], the IC50 was in the range of 100 to 1000 nM. The figure for `Cc1cccc(-n2ncc3ccc(-c4cccc(C(N)CC(=O)O)n4)cc32)n1` (centres unmarked) [Example 260, 3-amino-3-(6-(1-(6-methylpyridin-2-yl)-1H-indazol-6-yl)pyridin-2-yl)propanoic acid] is 100 to 1000 nM; for `COC(=O)CC(N)c1cccc(-c2ccc3cnn(-c4cccc(C)n4)c3c2)n1` (centres unmarked) [Example 261, methyl 3-amino-3-(6-(1-(6-methylpyridin-2-yl)-1H-indazol-6-yl)pyridin-2-yl)propanoate] it is below 100 nM.

On to `Cc1cccc(-n2ncc3ccc(-c4cccc(C5(N)CC5)n4)cc32)n1` [Example 262, 1-(6-(1-(6-methylpyridin-2-yl)-1H-indazol-6-yl)pyridin-2-yl)cyclopropanamine], for which the IC50 is 100 to 1000 nM. The figure for `CCC(N)c1cccc(-c2ccc3cnn(-c4cccc(C)n4)c3c2)n1` (centres unmarked) [Example 263, 1-(6-(1-(6-methylpyridin-2-yl)-1H-indazol-6-yl)pyridin-2-yl)propan-1-amine] is below 100 nM; for `CCC[C@@H](N)c1cccc(-c2ccc3cnn(-c4cccc(C)n4)c3c2)n1` [Example 264, (R)-1-(6-(1-(6-methylpyridin-2-yl)-1H-indazol-6-yl)pyridin-2-yl)butan-1-amine] it is below 100 nM.

For the molecule `CCC[C@H](N)c1cccc(-c2ccc3cnn(-c4cccc(C)n4)c3c2)n1` [Example 265, (S)-1-(6-(1-(6-methylpyridin-2-yl)-1H-indazol-6-yl)pyridin-2-yl)butan-1-amine], the half-inhibitory concentration (IC50) is below 100 nM. The molecule `Cc1cccc(-n2ncc3ccc(-c4ccc(Cl)c(C(C)N)n4)cc32)n1` (centres unmarked) [Example 266, 1-(3-chloro-6-(1-(6-methylpyridin-2-yl)-1H-indazol-6-yl)pyridin-2-yl)ethanamine] came in with an IC50 of 100 to 1000 nM. `Cc1cccc(-n2ncc3ccc(-c4cccc(C(N)C(N)=O)n4)cc32)n1` (centres unmarked) [Example 267, 2-amino-2-(6-(1-(6-methylpyridin-2-yl)-1H-indazol-6-yl)pyridin-2-yl)acetamide] gave an IC50 of 100 to 1000 nM.

Take `CCCC(N)c1cccc(-c2ccc3cnn(-c4cccc(C(F)(F)F)n4)c3c2)n1` (centres unmarked) [Example 268, 1-(6-(1-(6-(trifluoromethyl)pyridin-2-yl)-1H-indazol-6-yl)pyridin-2-yl)butan-1-amine]: the IC50 was below 100 nM. `CCC(N)c1cccc(-c2ccc3cnn(-c4cccc(C(N)=O)n4)c3c2)n1` (centres unmarked) [Example 269, 6-(6-(6-(1-aminopropyl)pyridin-2-yl)-1H-indazol-1-yl)picolinamide] showed an IC50 below 100 nM. With `CC(N)c1cc(N)cc(-c2ccc3cnn(-c4cccc(C(F)(F)F)n4)c3c2)n1` (centres unmarked) [Example 270, 2-(1-aminoethyl)-6-(1-(6-(trifluoromethyl)pyridin-2-yl)-1H-indazol-6-yl)pyridin-4-amine] the figure was below 100 nM; with `Cc1cccc(-n2ncc3ccc(-c4cccc(C(N)CO)n4)cc32)n1` (centres unmarked) [Example 271, 2-amino-2-(6-(1-(6-methylpyridin-2-yl)-1H-indazol-6-yl)pyridin-2-yl)ethanol], below 100 nM.

Molecule `COC(=O)C(N)c1cccc(-c2ccc3cnn(-c4cccc(C)n4)c3c2)n1` (centres unmarked) [Example 272, methyl 2-amino-2-(6-(1-(6-methylpyridin-2-yl)-1H-indazol-6-yl)pyridin-2-yl)acetate] gave an IC50 of 100 to 1000 nM. In the case of `Cc1cccc(-n2ncc3ccc(-c4cccc(C(N)C(=O)O)n4)cc32)n1` (centres unmarked) [Example 273, 2-amino-2-(6-(1-(6-methylpyridin-2-yl)-1H-indazol-6-yl)pyridin-2-yl)acetic acid], the IC50 was below 100 nM.

The molecule `CCCC(N)c1cccc(-c2ccc3cnn(-c4cccc(C(N)=O)n4)c3c2)n1` (centres unmarked) [Example 274, 6-(6-(6-(1-aminobutyl)pyridin-2-yl)-1H-indazol-1-yl)picolinamide] gave an IC50 below 100 nM. `CC(N)c1cccc(-c2ccc3cnn(-c4cccc(C(C)(C)O)n4)c3c2)n1` (centres unmarked) [Example 278, 2-(6-(6-(6-(1-aminoethyl)pyridin-2-yl)-1H-indazol-1-yl)pyridin-2-yl)propan-2-ol] came in with an IC50 below 100 nM. The figure for `COCc1cccc(-n2ncc3ccc(-c4cccc(C(C)N)n4)cc32)n1` (centres unmarked) [Example 279, 1-(6-(1-(6-(methoxymethyl)pyridin-2-yl)-1H-indazol-6-yl)pyridin-2-yl)ethanamine] is below 100 nM. The figure for `CCCC(N)c1cccc(-c2ccc3cnn(-c4cccc(CO)n4)c3c2)n1` (centres unmarked) [Example 280, (6-(6-(6-(1-aminobutyl)pyridin-2-yl)-1H-indazol-1-yl)pyridin-2-yl)methanol] is below 100 nM; for `Cc1cccc(-n2ncc3ccc(-c4ccc(C)c(C(C)N)n4)cc32)n1` (centres unmarked) [Example 281, 1-(3-methyl-6-(1-(6-methylpyridin-2-yl)-1H-indazol-6-yl)pyridin-2-yl)ethanamine] it is below 100 nM. With `Cc1csc(-n2ncc3ccc(-c4cccc(C(C)N)n4)cc32)c1` (centres unmarked) [Example 282, 1-(6-(1-(4-methylthiophen-2-yl)-1H-indazol-6-yl)pyridin-2-yl)ethanamine] the figure was 1000 to 10000 nM; with `CCCc1cccc(-n2ncc3ccc(-c4cccc(C(C)N)n4)cc32)n1` (centres unmarked) [Example 283, 1-(6-(1-(6-propylpyridin-2-yl)-1H-indazol-6-yl)pyridin-2-yl)ethanamine], below 100 nM.

For `CC(N)c1cccc(-c2ccc3cnn(-c4cccc(C(C)O)n4)c3c2)n1` (centres unmarked) [Example 284, 1-(6-(6-(6-(1-aminoethyl)pyridin-2-yl)-1H-indazol-1-yl)pyridin-2-yl)ethanol], the IC50 was below 100 nM. With `Cc1cccc(-n2ncc3ccc(-c4coc(CN)n4)cc32)n1` [Example 285, (4-(1-(6-methylpyridin-2-yl)-1H-indazol-6-yl)oxazol-2-yl)methanamine] the figure was 1000 to 10000 nM; with `CC(N)c1cccc(-c2ccc3cnn(-c4cccc(C(C)(C)C)n4)c3c2)n1` (centres unmarked) [Example 286, 1-(6-(1-(6-(tert-butyl)pyridin-2-yl)-1H-indazol-6-yl)pyridin-2-yl)ethanamine], below 100 nM. Turning to `CC(N)c1cccc(-c2ccc3cnn(-c4cccc(CN)n4)c3c2)n1` (centres unmarked) [Example 287, 1-(6-(1-(6-(aminomethyl)pyridin-2-yl)-1H-indazol-6-yl)pyridin-2-yl)ethanamine], the 50% inhibitory concentration (IC50) was in the range of 100 to 1000 nM.

For `CC(N)c1cccc(-c2ccc3cnn(-c4cccc(C(C)(C)C#N)n4)c3c2)n1` (centres unmarked) [Example 288, 2-(6-(6-(6-(1-aminoethyl)pyridin-2-yl)-1H-indazol-1-yl)pyridin-2-yl)-2-methylpropanenitrile], the IC50 lay within 100 to 1000 nM. The figure for `CC(N)c1cccc(-c2ccc3cnn(-c4cccc(C(C)(C)S(C)(=O)=O)n4)c3c2)n1` (centres unmarked) [Example 289, 1-(6-(1-(6-(2-(methylsulfonyl)propan-2-yl)pyridin-2-yl)-1H-indazol-6-yl)pyridin-2-yl)ethanamine] is 1000 to 10000 nM; for `CC(N)c1cccc(-c2ccc3cnn(-c4cccc(C5(C#N)CC5)n4)c3c2)n1` (centres unmarked) [Example 290, 1-(6-(6-(6-(1-aminoethyl)pyridin-2-yl)-1H-indazole-1-yl)pyridin-2-yl)cyclopropanecarbonitrile] it is below 100 nM.

One may read the IC50 as the concentration needed to halve the response being measured. Read a low IC50 as greater potency.

These data come from patent US10246456B2, “IRAK4 inhibiting agents” (BIOGEN MA INC., priority 2014, dated 2019).
